Measurements reported in US8859562B2, “Use of RNAI inhibiting PARP activity for the manufacture of a medicament for the treatment of cancer” (The University of Sheffield, priority 2003, dated 2014).

What was measured:
[1] = system: irs1 cells (XRCC2 deficient, deficient in HR); assay: Colony outgrowth assay, irs1 cells; assay type: cell-based, Chinese hamster; conditions: irs1, defective in XRCC2; FIG. 1
Method: (§1) 500 cells suspended in medium were plated onto a Petri dish 4 hours prior to the addition of 3-AB, ISQ or NU1025. ISQ and NU1025 were dissolved in DMSO to a final concentration of 0.2% in treatment medium. 7-12 days later, when colonies could be observed, these colonies were fixed and stained with methylene blue in methanol (4 g/l). Colonies consisting of more than 50 cells were subsequently counted.

[2] = system: irs1X2.2 cells (irs1 complemented with XRCC2); assay: Colony outgrowth assay, irs1X2.2 cells; assay type: cell-based, Chinese hamster; conditions: irs1X2.2 versus irs1; FIG. 1
Method: as §1

[3] = system: irs1SF cells (XRCC3 deficient, deficient in HR); assay: Colony outgrowth assay, irs1SF cells; assay type: cell-based, Chinese hamster; conditions: defective in XRCC3, FIG. 1
Method: as §1

[4] = system: CXR3 cells (irs1SF complemented with XRCC3); assay: Colony outgrowth assay, CXR3 cells; assay type: cell-based, Chinese hamster; conditions: CXR3 versus irs1SF; FIG. 1
Method: as §1

[5] = system: PARP; assay: PARP activity assay by level of free NAD(P)H (WST-8); assay type: cell-based; conditions: FIG. 7F; hydroxyurea 0.5 mM, thymidine 10 mM
Method: A water-soluble tetrazolium salt (5 mM WST-8) was used to monitor the amount of NAD(P)H through its reduction to a yellow coloured formazan dye[43]. 5000 cells were plated in at least triplicate into wells of a 96 well plate and cultured in 100 μl normal growth media for 4 h at 37° C. CK8 buffer (Dojindo Molecular Technology, Gaithersburg, USA), containing WST-8, was then added either with or without treatment with DNA damaging agents at concentrations indicated. Reduction of WST-8 in the presence of NAD(P)H was determined by measuring visible absorbance (OD450) every 30 min. A medium blank was also prepared containing just media and CK8 buffer. Changes in NAD(P)H levels were calculated by comparing the absorbance of wells containing cells treated with DNA damaging agents and those treated with DMSO alone. Alternately relative levels of NAD(P)H in different cells lines were calculated after 4 h incubation in CK8 buffer.

[6] = system: VC8 cells; assay: Apoptosis experiments (annexin-V/PI flow cytometry); assay type: cell-based, Chinese hamster; conditions: 72 hours following exposure; FIG. 3
Method: 0.25×10^6 cells were plated onto Petri dishes and grown for 4 hours before treatment with NU1025. After 72 hours, cells were trypsinized and resuspended with medium containing any floating cells from that sample. The cells were pelleted by centrifugation and resuspended for apoptosis analysis with FITC-conjugated annexin-V and propidium iodine (PI) (ApoTarget, Biosource International) according to manufacturer's protocol. Samples were analysed by flow cytometry (Becton-Dickenson FACSort, 488 nm laser), and percentage of apoptotic cells was determined by the fraction of live cells (PI-negative) bound with FITC-conjugated annexin-V.

[7] = system: V-C8+B2 cells; assay: Survival on co-treatment with replication inhibitors and NU1025; assay type: cell-based, Chinese hamster; conditions: co-treatment with NU1025 (10 μM)
Method: as §1

[8] = system: MCF7 (wild-type p53) breast cancer cells depleted of BRCA2; assay: Colony outgrowth of siRNA-treated MCF-7 cells; assay type: cell-based; conditions: MCF7, BRCA2 depleted with a mixture of BRCA2 siRNA; FIG. 4
Method: as §1
Predesigned BRCA2 SMARTpool and scrambled siRNAs were purchased (Dharmacon, Lafayette, Colo.). 10000 cells seeded onto 6 well plates and left over night before transfected with 100 nM siRNA using Oligofectamine Reagent (Invitrogen) according to manufacturers instructions. Cells were then cultured in normal growth media for 48 h prior to trypsinisation and replating for toxicity assays. Suppression of BRCA2 was confirmed by Western blotting (as described previously) of protein extracts treated with siRNA with an antibody against BRCA2 (Oncogene, Nottingham, UK).

[9] = system: BRCA2 deficient V-C8 cells; assay: RAD51 foci immunofluorescence, V-C8 cells; assay type: cell-based, Chinese hamster; conditions: 24-hour treatment, 10 μM, FIG. 5D
Method: (§2) Cells were plated onto coverslips 4 h prior to 24-h treatments as indicated. Following treatments the medium was removed and coverslips rinsed once in PBS at 37° C. and fixed as described elsewhere. The primary antibodies and dilutions used in this study were; rabbit polyclonal anti PAR (Trevigen; 1:500), goat polyclonal anti Rad51 (C-20, Santa Cruz; 1:200) and rabbit polyclonal anti Rad51 (H-92, Santa Cruz; 1:1000). The secondary antibodies were Cy-3-conjugated goat anti-rabbit IgG antibody (Zymed; 1:500), Alexa 555 goat anti-rabbit F(ab′)2IgG antibody (Molecular Probes; 1:500), Alexa 546 donkey anti-goat IgG antibody (Molecular Probes; 1:500) and Alexa 488 donkey anti-rabbit IgG antibody (Molecular Probes; 1:500). Antibodies were diluted in PBS containing 3% bovine serum albumin. DNA was stained with 1 μg/ml To Pro (Molecular Probes). Images were obtained with a Zeiss LSM 510 inverted confocal microscope using planapochromat 63X/NA 1.4 oil immersion objective and excitation wavelengths 488, 546 and 630 nm. Through focus maximum projection images were acquired from optical sections 0.50 μm apart and with a section thickness of 1.0 μm. Images were processed using Adobe PhotoShop (Abacus Inc). At least 300 nuclei were counted on each slide and those containing more than 10 RAD51 foci or sites of PARP activity were classified as positive.

[10] = system: BRCA2 deficient cells (VC8); assay: Colony outgrowth assay, VC8 cells; assay type: cell-based, Chinese hamster
Method: as §1

[11] = system: VC8+B2 cells (functional BRCA2 gene on overexpression vector); assay: Colony outgrowth assay, VC8+B2 cells; assay type: cell-based, Chinese hamster; conditions: FIG. 2
Method: as §1

[12] = system: V79 cells; assay: Pulse-field gel electrophoresis for DSBs, V79 cells; assay type: cell-based, Chinese hamster; conditions: highly toxic levels of NU1025 (0.1 mM, 24-hour), FIG. 5A
Method: (§3) 1.5×10^6 cells were plated onto 100 mm dishes and allowed 4 h for attachment. […] These inserts were incubated as described elsewhere (8) and separated by pulse-field gel electrophoresis for 24 h (BioRad; 120° angle, 60 to 240 s switch time, 4 V/cm). The gel was subsequently stained with ethidium bromide for analysis.

[13] = system: VC8#13 cells (functional BRCA2 gene on chromosome 13); assay: Colony outgrowth assay, VC8#13 cells; assay type: cell-based, Chinese hamster; conditions: BRCA2 on chromosome 13 (VC8#13); FIG. 2
Method: as §1

[14] = system: V-C8 cells; assay: Pulse-field gel electrophoresis for DSBs, V-C8 cells; assay type: cell-based, Chinese hamster; conditions: highly toxic levels of NU1025 (0.1 mM, 24-hour), FIG. 5A
Method: as §3

[15] = system: V-C8+B2 cells; assay: RAD51 foci immunofluorescence, V-C8+B2 cells; assay type: cell-based, Chinese hamster; conditions: 24-hour treatment, 10 μM, t-test p<0.05, FIG. 5D
Method: as §2

[16] = system: MDA-MB-231 (mutated p53) breast cancer cells depleted of BRCA2; assay: Colony outgrowth of siRNA-treated MDA-MB-231 cells; assay type: cell-based; conditions: MDA-MB-231, BRCA2 depleted with a mixture of BRCA2 siRNA; FIG. 4
Method: 500 cells suspended in medium were plated onto a Petri dish 4 hours prior to the addition of 3-AB, ISQ or NU1025. ISQ and NU1025 were dissolved in DMSO to a final concentration of 0.2% in treatment medium. 7-12 days later, when colonies could be observed, these colonies were fixed and stained with methylene blue in methanol (4 g/l). Colonies consisting of more than 50 cells were subsequently counted. Predesigned BRCA2 SMARTpool and scrambled siRNAs were purchased (Dharmacon, Lafayette, Colo.). 10000 cells seeded onto 6 well plates and left over night before transfected with 100 nM siRNA using Oligofectamine Reagent (Invitrogen) according to manufacturers instructions. Cells were then cultured in normal growth media for 48 h prior to trypsinisation and replating for toxicity assays. Suppression of BRCA2 was confirmed by Western blotting (as described previously) of protein extracts treated with siRNA with an antibody against BRCA2 (Oncogene, Nottingham, UK).

[17] = system: V79 hamster cells; assay: PAR polymer staining (sites of PARP activity); assay type: cell-based; conditions: V79 cells treated for 24 hours; FIG. 7C
Method: as §2

Compound: NC(=O)c1cccc(N)c1 [3-AB, 3-aminobenzamide]
- sensitivity to the toxic effect (survival) [1]: very sensitive
- sensitivity after introduction of functional XRCC2 gene [2]: corrected
- sensitivity to the toxic effect (survival) [3]: very sensitive
- sensitivity after introduction of functional XRCC3 gene [4]: corrected

Compound: Oc1cccc2c(O)nccc12 [ISQ, 1,5-dihydroxyisoquinoline]
- sensitivity to the toxic effect (survival) [1]: very sensitive
- sensitivity after introduction of functional XRCC2 gene [2]: corrected
- sensitivity to the toxic effect (survival) [3]: very sensitive
- sensitivity after introduction of functional XRCC3 gene [4]: corrected

Compound: COS(C)(=O)=O [MMS, Methylmethane sulphonate]
- activation of PARP and reduction of NAD(P)H levels [5]: depletes the NAD(P)H levels

Compound: Cc1nc2c(O)cccc2c(=O)[nH]1 [NU1025, 8-hydroxy-2-methylquinazolin-4-[3H]one]
- sensitivity to the toxic effect (survival) [1]: very sensitive
- level of apoptosis [6]: triggered apoptosis only in VC8 cells
- sensitivity to hydroxyurea ([7]; FIG. 7D): enhances the sensitivity
- sensitivity to thymidine ([7]; FIG. 7E): enhances the sensitivity
- sensitivity after introduction of functional XRCC2 gene [2]: corrected
- survival [8]: profoundly reduced the survival
- formation of RAD51 foci [9]: unable to form RAD51 foci
- sensitivity to cytotoxicity relative to wild type cells ([10]; BRCA2 deficient cells versus wild type cells): 100 times
- sensitivity to the toxic effect (survival) ([10]; VC8 versus wild type V79Z, FIG. 2): very sensitive
- sensitivity to the toxic effect (survival) [3]: very sensitive
- sensitivity after introduction of functional BRCA2 gene [11]: corrected
- accumulation of DSBs [12]: no DSBs were detectable
- sensitivity after introduction of functional BRCA2 gene [13]: corrected
- accumulation of DSBs [14]: no DSBs were detectable
- formation of RAD51 foci [15]: RAD51 foci were indeed induced
- sensitivity after introduction of functional XRCC3 gene [4]: corrected
- survival [16]: profoundly reduced the survival

Compound: NC(=O)NO [hydroxyurea]
- activation of PARP and reduction of NAD(P)H levels [5]: much slower
- number of cells containing sites of PARP activity [17]: substantial increase

Compound: Cc1cn([C@H]2C[C@H](O)[C@@H](CO)O2)c(=O)[nH]c1=O [thymidine]
- activation of PARP and reduction of NAD(P)H levels [5]: much slower
- number of cells containing sites of PARP activity [17]: substantial increase
